# Experimental data as given in patent US20250171426A1, “PYRIMIDINEDIONE-BASED COMPOUNDS AS AXL, C-MET, AND MER INHIBITORS AND METHODS OF USE THEREOF” (CMG Pharmaceutical Co., Ltd., priority 2022, published 2025).
# Key:
# Assay type in all cases: biochemical
# Details in all cases: 10 μM ATP, 60 min, ADP-GLO luminescence
# c-MET = c-MET (Homo sapiens, UniProt P08581); assay: Enzymatic assay (ADP-Glo kinase reaction), c-MET
# Method: (§1) All the kinase reactions were performed in 5 μL using tyrosine kinase buffer with 0.2 μg/μL poly (Glu4, Tyr1) substrate, 10 μM ATP, serial dilution of the inhibitor, and incubated at room temperature for 60 min. After the indicated incubation times, 5 μL ADP-GLO™ reagent (Promega, Madison, WI) was added to the reactions and the plate was incubated at room temperature for 40 min. […] All 384-well assay plates were read using a GLOMAX™ Discover Microplate Luminometer from Promega (Madison, WI). To plot, analyze the data and calculate all kinase reaction biochemical values, both Microsoft Excel and Prism from GraphPad 7 Software (La Jolla, CA) were used.
# AXL = target: T1, AXL (Homo sapiens, UniProt P30530); assay: Enzymatic assay (ADP-Glo kinase reaction), AXL
# T1 sequence (P30530 26-894): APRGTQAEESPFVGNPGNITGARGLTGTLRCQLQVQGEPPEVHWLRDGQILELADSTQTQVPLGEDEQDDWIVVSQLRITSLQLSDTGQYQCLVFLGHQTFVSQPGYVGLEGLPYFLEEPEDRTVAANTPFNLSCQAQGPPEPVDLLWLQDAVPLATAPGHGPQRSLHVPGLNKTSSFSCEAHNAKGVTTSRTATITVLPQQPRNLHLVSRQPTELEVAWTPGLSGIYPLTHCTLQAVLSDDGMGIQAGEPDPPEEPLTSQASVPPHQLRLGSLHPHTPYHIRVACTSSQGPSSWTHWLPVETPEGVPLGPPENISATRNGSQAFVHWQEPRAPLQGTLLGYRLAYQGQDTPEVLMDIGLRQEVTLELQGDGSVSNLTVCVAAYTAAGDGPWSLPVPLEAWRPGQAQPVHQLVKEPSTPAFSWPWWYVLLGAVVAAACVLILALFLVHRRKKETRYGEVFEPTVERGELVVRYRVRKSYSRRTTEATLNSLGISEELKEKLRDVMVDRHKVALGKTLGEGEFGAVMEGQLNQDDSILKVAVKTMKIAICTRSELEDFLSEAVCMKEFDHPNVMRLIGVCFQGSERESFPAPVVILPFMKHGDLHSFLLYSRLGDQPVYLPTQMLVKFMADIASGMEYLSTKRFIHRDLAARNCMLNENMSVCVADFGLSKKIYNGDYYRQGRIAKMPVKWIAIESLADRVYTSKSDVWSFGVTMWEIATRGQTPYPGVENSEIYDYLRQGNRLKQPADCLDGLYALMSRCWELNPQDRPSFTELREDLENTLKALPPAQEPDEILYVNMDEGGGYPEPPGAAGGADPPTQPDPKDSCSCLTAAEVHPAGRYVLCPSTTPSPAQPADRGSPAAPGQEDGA
# Method: as §1
# MER = target: T2, MER (Homo sapiens, UniProt Q12866); assay: Enzymatic assay (ADP-Glo kinase reaction), MER
# T2 sequence (Q12866 21-999): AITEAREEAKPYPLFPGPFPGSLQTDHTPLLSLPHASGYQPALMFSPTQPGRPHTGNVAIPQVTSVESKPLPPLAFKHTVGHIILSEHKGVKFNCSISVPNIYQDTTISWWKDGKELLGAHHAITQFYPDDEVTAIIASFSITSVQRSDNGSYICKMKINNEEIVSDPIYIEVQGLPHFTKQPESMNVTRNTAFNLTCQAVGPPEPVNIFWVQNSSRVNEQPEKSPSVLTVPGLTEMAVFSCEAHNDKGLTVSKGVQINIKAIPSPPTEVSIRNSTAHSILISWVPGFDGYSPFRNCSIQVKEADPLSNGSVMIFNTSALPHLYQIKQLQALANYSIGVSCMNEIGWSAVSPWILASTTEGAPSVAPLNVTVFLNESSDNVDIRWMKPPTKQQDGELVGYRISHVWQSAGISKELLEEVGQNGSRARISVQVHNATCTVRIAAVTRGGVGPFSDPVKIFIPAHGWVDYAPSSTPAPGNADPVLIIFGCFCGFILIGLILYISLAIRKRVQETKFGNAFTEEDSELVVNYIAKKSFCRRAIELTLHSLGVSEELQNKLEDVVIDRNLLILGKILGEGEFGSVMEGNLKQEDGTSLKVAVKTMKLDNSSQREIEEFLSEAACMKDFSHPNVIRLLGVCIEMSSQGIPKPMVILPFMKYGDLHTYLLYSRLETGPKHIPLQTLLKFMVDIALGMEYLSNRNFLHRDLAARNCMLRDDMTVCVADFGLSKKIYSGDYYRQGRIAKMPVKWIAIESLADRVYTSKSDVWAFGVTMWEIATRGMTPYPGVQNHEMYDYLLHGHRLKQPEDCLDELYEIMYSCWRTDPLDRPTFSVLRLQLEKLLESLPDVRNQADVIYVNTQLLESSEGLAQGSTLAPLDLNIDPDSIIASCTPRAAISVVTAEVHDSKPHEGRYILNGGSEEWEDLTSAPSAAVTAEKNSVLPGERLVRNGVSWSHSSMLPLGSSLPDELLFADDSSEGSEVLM
# Method: (§2) All the kinase reactions were performed in 5 μL using tyrosine kinase buffer with 0.2 μg/μL poly (Glu4, Tyr1) substrate, 10 μM ATP, serial dilution of the inhibitor, and incubated at room temperature for 60 min. After the indicated incubation times, 5 μL ADP-GLO™ reagent (Promega, Madison, WI) was added to the reactions and the plate was incubated at room temperature for 40 min. Then, 10 μL of kinase detection reagent was added and after an incubation time of 40 min, luminescence was recorded and IC50 values were determined (Table 1). All 384-well assay plates were read using a GLOMAX™ Discover Microplate Luminometer from Promega (Madison, WI). To plot, analyze the data and calculate all kinase reaction biochemical values, both Microsoft Excel and Prism from GraphPad 7 Software (La Jolla, CA) were used.
# as §2, with “3).” for “1).”
# Chain of c-MET (P08581 25-1390): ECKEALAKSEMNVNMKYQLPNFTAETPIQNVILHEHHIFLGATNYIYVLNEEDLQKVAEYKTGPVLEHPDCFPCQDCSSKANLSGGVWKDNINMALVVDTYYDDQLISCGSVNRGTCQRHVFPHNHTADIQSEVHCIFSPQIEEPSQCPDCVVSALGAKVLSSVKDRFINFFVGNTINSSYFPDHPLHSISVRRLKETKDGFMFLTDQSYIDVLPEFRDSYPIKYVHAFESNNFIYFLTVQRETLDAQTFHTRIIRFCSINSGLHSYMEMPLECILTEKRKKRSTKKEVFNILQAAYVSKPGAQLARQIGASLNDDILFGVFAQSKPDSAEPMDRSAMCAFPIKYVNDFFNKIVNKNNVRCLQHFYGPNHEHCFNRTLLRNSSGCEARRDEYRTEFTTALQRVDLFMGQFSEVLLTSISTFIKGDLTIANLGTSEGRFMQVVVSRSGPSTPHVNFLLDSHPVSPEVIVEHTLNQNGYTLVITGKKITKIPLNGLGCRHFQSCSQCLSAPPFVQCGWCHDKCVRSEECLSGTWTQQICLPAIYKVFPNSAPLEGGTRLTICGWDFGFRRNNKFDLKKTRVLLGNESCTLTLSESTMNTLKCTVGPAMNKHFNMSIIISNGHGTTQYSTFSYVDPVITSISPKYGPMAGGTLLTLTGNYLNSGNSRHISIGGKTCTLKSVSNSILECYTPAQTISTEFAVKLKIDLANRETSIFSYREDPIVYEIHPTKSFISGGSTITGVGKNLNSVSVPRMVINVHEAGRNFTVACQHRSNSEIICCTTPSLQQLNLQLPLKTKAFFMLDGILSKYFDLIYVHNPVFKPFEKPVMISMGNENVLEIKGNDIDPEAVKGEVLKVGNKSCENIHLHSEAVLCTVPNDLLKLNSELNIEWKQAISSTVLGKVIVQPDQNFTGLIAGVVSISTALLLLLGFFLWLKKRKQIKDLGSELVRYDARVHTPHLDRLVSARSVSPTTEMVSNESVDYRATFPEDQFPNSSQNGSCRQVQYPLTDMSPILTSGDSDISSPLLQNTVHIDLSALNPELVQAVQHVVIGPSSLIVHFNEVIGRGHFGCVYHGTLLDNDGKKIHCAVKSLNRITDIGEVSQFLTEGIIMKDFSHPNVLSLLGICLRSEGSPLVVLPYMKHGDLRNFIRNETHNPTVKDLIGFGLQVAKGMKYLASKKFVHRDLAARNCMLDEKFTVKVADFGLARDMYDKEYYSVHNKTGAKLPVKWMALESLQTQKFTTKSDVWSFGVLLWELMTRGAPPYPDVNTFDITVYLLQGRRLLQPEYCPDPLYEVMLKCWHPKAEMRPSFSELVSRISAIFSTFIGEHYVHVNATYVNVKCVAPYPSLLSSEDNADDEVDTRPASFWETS
IC50 (c-MET),IC50 (AXL),IC50 (MER),Structure (SMILES)
< 10 nM,< 10 nM,< 10 nM,"CC(C)n1cc(C(=O)Nc2ccc(Oc3ccnc(N)c3C#CCC3CCNCC3)c(F)c2)c(=O)n(-c2ccc(F)cc2)c1=O [Example 27, N-(4-(2-amino-3-(3-(piperidin-4-yl)prop-1-ynyl)pyridin-4-yloxy)-3-fluorophenyl)-3-(4-fluorophenyl)-1-isopropyl-2,4-dioxo-1,2,3,4-tetrahydropyrimidine-5-carboxamide]"
< 1000 nM,< 100 nM,< 100 nM,"Cc1nc(Cn2cc(C(=O)Nc3ccc(Oc4ccnc(N)c4C#CCN4CCOCC4)c(F)c3)c(=O)n(-c3ccc(F)cc3)c2=O)cs1 [Example 40, N-(4-((2-amino-3-(3-morpholinoprop-1-yn-1-yl)pyridin-4-yl)oxy)-3-fluorophenyl)-3-(4-fluorophenyl)-1-((2-methylthiazol-4-yl)methyl)-2,4-dioxo-1,2,3,4-tetrahydropyrimidine-5-carboxamide]"
< 1000 nM,< 1000 nM,< 100 nM,"C=CCn1cc(C(=O)Nc2ccc(Oc3ccnc(N)c3C#CC(C)(C)N3CCN(C)CC3)c(F)c2)c(=O)n(CC=C)c1=O [Example 68, 1,3-diallyl-N-(4-(2-amino-3-(3-methyl-3-(4-methylpiperazin-1-yl)but-1-ynyl)pyridin-4-yloxy)-3-fluorophenyl)-2,4-dioxo-1,2,3,4-tetrahydropyrimidine-5-carboxamide]"
< 10000 nM,< 10000 nM,< 1000 nM,"CN1CCN(C(C)(C)C#Cc2c(Oc3ccc(NC(=O)c4cn(CC(=O)N(C)C)c(=O)n(-c5ccc(F)cc5)c4=O)cc3F)ccnc2N)CC1 [Example 36, N-(4-((2-amino-3-(3-methyl-3-(4-methylpiperazin-1-yl)but-1-yn-1-yl)pyridin-4-yl)oxy)-3-fluorophenyl)-1-(2-(dimethylamino)-2-oxoethyl)-3-(4-fluorophenyl)-2,4-dioxo-1,2,3,4-tetrahydropyrimidine-5-carboxamide]"
< 100 nM,< 100 nM,< 100 nM,"CC(C)(C#Cc1c(Oc2ccc(NC(=O)c3cn(C4CCOCC4)c(=O)n(-c4ccc(F)cc4)c3=O)cc2F)ccnc1N)N1CCOCC1 [Example 55, N-(4-(2-amino-3-(3-methyl-3-morpholinobut-1-ynyl)pyridin-4-yloxy)-3-fluorophenyl)-3-(4-fluorophenyl)-2,4-dioxo-1-(tetrahydro-2H-pyran-4-yl)-1,2,3,4-tetrahydropyrimidine-5-carboxamide]"
< 100 nM,< 1000 nM,< 100 nM,"Cc1nc(Cn2cc(C(=O)Nc3ccc(Oc4ccnc(N)c4C#CC(C)(C)N4CCN(C)CC4)c(F)c3)c(=O)n(-c3ccc(F)cc3)c2=O)cs1 [Example 42, N-(4-((2-amino-3-(3-methyl-3-(4-methylpiperazin-1-yl)but-1-yn-1-yl)pyridin-4-yl)oxy)-3-fluorophenyl)-3-(4-fluorophenyl)-1-((2-methylthiazol-4-yl)methyl)-2,4-dioxo-1,2,3,4-tetrahydropyrimidine-5-carboxamide]"
< 100 nM,< 10 nM,< 10 nM,"CN1CCC(CC#Cc2c(Oc3ccc(NC(=O)c4cn(C5CCOCC5)c(=O)n(-c5ccc(F)cc5)c4=O)cc3F)ccnc2N)CC1 [Example 60, N-(4-(2-amino-3-(3-(1-methylpiperidin-4-yl)prop-1-ynyl)pyridin-4-yloxy)-3-fluorophenyl)-3-(4-fluorophenyl)-2,4-dioxo-1-(tetrahydro-2H-pyran-4-yl)-1,2,3,4-tetrahydropyrimidine-5-carboxamide]"

# Further lines, the compound ahead of its results:
Structure (SMILES),IC50 (c-MET),IC50 (AXL),IC50 (MER)
"CCCn1cc(-c2c(Oc3ccc(NC(=O)c4cn(C(C)C)c(=O)n(-c5ccc(F)cc5)c4=O)cc3F)ccnc2N)cn1 [Example 12, N-(4-(2-amino-3-(1-propyl-1H-pyrazol-4-yl)pyridine-4-yloxy)-3-fluorophenyl)-3-(4-fluorophenyl)-1-isopropyl-2,4-dioxo-1,2,3,4-tetrahydropyrimidine-5-carboxamide]",< 10000 nM,< 1000 nM,< 1000 nM
"CC(C)n1cc(C(=O)Nc2ccc(Oc3ccnc(N)c3C#CC(C)(C)N3CCOCC3)c(F)c2)c(=O)n(-c2ccc(F)cc2)c1=O [Example 25, N-(4-(2-amino-3-(3-methyl-3-morpholinobut-1-ynyl)pyridin-4-yloxy)-3-fluorophenyl)-3-(4-fluorophenyl)-1-isopropyl-2,4-dioxo-1,2,3,4-tetrahydropyrimidine-5-carboxamide]",< 10 nM,< 10 nM,< 10 nM
"CC(C)n1cc(C(=O)Nc2ccc(Oc3ccnc(N)c3-c3ccccc3)c(F)c2)c(=O)n(-c2ccc(F)cc2)c1=O [Example 22, N-(4-(2-amino-3-phenylpyridin-4-yloxy)-3-fluorophenyl)-3-(4-fluorophenyl)-1-isopropyl-2,4-dioxo-1,2,3,4-tetrahydropyrimidine-5-carboxamide]",< 100 nM,< 100 nM,< 100 nM
"COCCN1CCN(C(=O)/C=C/c2c(Oc3ccc(NC(=O)c4cn(C(C)C)c(=O)n(-c5ccc(F)cc5)c4=O)cc3F)ccnc2N)CC1 [Example 4, (E)-N-(4-(2-amino-3-(3-(4-(2-methoxyethyl)piperazin-1-yl)-3-oxoprop-1-enyl)pyridin-4-yloxy)-3-fluorophenyl)-3-(4-fluorophenyl)-1-isopropyl-2,4-dioxo-1,2,3,4-tetrahydropyrimidine-5-carboxamide]",< 10 nM,< 10 nM,< 10 nM
"CC(C)n1cc(C(=O)Nc2ccc(Oc3ccnc(N)c3C#CC(C)(C)N3CCNCC3)c(F)c2)c(=O)n(-c2ccc(F)cc2)c1=O [Example 19, N-(4-(2-amino-3-(3-methyl-3-(piperazin-1-yl)but-1-ynyl)pyridin-4-yloxy)-3-fluorophenyl)-3-(4-fluorophenyl)-1-isopropyl-2,4-dioxo-1,2,3,4-tetrahydropyridmidine-5-carboxamide]",< 1000 nM,< 10 nM,< 10 nM
